Experimental data reported in US9637483B2, “Heterocyclic compound” (TAKEDA PHARMACEUTICAL COMPANY LIMITED, priority 2013, dated 2017).

Legend:
Type in all cases: biochemical
JAK1 = molecular target: T1, JAK1 (Homo sapiens, UniProt P23458); assay: JAK1 enzyme inhibition test (LANCE method); conditions: 1 μM test compound; read-out: JAK1 enzyme inhibitory activity (%, 1 μM)
T1 construct: purchased Invitrogen
Outline: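 Inhibition expressed against no-enzyme wells (100% inhibition), from time-resolved fluorescence at 665 nm after Eu-anti-phosphotyrosine antibody/EDTA detection. Kinase reaction ran 1 h at room temperature, pH 7.5 HEPES buffer, ULight-JAK1 substrate and ATP diluted to 300 nM and 150 μM before addition.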

JAK2 = molecular target: T2, JAK2 (Homo sapiens, UniProt O60674); assay: JAK2 enzyme inhibition test (LANCE method); conditions: 1 μM test compound; read-out: JAK2 enzyme inhibitory activity (%, 1 μM)
T2 construct: purchased Invitrogen
T2 sequence (O60674 whole entry): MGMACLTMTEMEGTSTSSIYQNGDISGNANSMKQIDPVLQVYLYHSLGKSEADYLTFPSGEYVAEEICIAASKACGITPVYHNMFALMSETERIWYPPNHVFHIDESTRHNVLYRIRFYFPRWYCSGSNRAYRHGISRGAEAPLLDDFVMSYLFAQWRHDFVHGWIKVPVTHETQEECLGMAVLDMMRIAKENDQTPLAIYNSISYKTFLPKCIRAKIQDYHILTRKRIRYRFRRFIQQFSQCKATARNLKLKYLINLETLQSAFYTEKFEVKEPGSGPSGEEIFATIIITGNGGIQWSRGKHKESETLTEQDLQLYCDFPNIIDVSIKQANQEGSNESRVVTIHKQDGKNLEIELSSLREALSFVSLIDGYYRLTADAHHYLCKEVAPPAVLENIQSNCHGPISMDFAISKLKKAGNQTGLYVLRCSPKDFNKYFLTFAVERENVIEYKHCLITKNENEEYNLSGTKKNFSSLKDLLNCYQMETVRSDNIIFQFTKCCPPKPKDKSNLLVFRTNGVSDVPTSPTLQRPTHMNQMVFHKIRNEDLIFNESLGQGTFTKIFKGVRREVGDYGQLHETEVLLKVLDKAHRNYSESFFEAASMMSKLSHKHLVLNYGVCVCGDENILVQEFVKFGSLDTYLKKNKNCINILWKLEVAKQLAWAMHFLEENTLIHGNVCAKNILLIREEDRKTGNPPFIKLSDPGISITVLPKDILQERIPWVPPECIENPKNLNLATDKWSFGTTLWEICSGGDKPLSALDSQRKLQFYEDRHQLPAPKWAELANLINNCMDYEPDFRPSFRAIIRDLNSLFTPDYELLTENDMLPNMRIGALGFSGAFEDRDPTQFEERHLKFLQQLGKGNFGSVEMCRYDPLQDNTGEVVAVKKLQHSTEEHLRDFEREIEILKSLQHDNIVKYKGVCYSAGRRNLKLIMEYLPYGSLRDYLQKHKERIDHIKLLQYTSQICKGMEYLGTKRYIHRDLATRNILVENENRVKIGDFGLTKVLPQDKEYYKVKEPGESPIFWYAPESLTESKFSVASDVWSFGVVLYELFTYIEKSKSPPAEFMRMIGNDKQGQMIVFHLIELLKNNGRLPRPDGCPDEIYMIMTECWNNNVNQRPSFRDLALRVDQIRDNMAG
Outline: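 TR-FRET (LANCE) read-out, ex 340/em 665 nm with 100 μs delay, after 1 hr room-temperature detection with europium anti-phosphotyrosine antibody and 20 mM EDTA. The preceding 1 hr kinase reaction combined JAK2, ULight-JAK1 substrate and ATP, added as 6 ng/mL, 300 nM and 45 μM solutions; enzyme-free wells defined 100% inhibition.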

JAK3 = molecular target: T3, JAK3 (Homo sapiens, UniProt P52333); assay: JAK3 enzyme inhibition test (LANCE method); conditions: 1 μM test compound; read-out: JAK3 enzyme inhibitory activity (%, 1 μM)
T3 construct: purchased Invitrogen
T3 sequence (P52333 1-1124): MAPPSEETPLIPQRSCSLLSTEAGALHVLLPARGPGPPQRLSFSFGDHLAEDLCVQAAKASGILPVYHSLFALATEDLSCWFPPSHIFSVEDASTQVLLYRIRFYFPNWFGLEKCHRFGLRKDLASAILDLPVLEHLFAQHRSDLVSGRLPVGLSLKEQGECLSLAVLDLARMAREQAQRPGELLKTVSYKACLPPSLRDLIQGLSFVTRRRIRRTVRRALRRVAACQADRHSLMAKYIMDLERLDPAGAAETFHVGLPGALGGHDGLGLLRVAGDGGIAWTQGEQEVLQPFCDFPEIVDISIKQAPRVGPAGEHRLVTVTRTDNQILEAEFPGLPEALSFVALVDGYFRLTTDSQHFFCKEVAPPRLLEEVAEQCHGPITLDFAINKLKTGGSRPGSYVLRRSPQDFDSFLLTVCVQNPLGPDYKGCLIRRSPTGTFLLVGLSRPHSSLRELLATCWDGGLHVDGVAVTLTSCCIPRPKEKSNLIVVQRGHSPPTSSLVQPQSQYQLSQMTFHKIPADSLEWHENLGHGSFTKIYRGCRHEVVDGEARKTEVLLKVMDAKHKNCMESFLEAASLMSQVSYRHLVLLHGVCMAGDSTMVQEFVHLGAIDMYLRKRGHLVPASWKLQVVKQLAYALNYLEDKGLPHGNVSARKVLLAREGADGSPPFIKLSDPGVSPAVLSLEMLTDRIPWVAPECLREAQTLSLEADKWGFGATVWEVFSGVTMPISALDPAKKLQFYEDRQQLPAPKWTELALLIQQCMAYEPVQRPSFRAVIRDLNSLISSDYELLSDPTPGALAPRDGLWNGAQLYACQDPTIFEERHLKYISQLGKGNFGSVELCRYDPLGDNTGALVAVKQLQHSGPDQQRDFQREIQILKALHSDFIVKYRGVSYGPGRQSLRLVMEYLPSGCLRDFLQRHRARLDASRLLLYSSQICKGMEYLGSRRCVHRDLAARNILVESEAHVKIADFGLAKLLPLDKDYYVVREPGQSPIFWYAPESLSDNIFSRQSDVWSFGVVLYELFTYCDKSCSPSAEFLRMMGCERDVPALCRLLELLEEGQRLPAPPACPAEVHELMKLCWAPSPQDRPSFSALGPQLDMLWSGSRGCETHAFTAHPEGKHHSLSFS
Outline: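 TR-FRET (LANCE) read: 1 h room-temperature reaction, EDTA quench, Eu-anti-phosphotyrosine antibody, emission 665 nm after 340 nm excitation. Added solutions held 12 ng/mL JAK3, 300 nM ULight-JAK1 substrate and 15 μM ATP (pH 7.5 HEPES). Activity expressed against no-enzyme wells defined as full inhibition.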

TYK2 = molecular target: T4, TYK2 (Homo sapiens, UniProt P29597); assay: TYK2 enzyme inhibition test (LANCE method); conditions: 1 μM test compound; read-out: TYK2 enzyme inhibitory activity (%, 1 μM)
T4 construct: purchased Invitrogen
T4 sequence (P29597 whole entry): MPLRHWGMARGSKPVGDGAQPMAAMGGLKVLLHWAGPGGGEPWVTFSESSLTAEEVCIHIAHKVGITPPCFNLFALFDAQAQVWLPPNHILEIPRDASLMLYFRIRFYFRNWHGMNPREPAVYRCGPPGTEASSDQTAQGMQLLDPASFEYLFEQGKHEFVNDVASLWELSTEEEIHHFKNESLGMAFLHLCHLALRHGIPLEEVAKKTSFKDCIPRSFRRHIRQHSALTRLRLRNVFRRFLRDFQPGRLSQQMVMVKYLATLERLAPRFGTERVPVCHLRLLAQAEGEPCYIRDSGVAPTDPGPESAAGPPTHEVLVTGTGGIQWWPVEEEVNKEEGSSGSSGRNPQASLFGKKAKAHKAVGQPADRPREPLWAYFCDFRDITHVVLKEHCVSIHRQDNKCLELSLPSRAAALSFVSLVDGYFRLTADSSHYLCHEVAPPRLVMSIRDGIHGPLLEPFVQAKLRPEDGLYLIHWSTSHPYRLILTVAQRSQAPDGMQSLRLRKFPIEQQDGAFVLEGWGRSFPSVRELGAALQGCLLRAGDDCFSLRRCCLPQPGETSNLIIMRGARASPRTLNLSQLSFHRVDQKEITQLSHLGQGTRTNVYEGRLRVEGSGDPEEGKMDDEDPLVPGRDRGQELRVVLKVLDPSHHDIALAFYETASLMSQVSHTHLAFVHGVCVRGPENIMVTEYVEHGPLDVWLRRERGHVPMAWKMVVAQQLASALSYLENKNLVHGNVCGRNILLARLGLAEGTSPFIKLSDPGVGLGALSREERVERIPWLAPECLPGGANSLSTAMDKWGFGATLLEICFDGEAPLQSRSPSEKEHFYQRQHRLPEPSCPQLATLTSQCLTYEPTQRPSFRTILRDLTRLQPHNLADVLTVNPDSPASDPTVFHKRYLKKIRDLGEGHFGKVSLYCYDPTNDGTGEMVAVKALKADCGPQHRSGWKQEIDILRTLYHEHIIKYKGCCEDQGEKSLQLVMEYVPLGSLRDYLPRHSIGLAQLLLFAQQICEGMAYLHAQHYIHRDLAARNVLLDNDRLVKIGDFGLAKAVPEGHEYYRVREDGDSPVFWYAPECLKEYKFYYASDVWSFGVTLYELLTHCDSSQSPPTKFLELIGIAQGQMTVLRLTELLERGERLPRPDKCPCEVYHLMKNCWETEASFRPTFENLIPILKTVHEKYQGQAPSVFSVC
Outline: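 TR-FRET (LANCE) readout: after 1 h room-temperature kinase reaction, EDTA plus 4 nM Eu-labelled anti-phosphotyrosine antibody added, signal at 665 nm (340 nm excitation). Reaction combined TYK2, ULight-JAK1 substrate and ATP, prepared at 375 ng/mL, 300 nM and 30 μM before addition, in pH 7.5 HEPES/MgCl2 buffer; enzyme-free wells define full inhibition.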

T1 sequence (P23458 whole entry): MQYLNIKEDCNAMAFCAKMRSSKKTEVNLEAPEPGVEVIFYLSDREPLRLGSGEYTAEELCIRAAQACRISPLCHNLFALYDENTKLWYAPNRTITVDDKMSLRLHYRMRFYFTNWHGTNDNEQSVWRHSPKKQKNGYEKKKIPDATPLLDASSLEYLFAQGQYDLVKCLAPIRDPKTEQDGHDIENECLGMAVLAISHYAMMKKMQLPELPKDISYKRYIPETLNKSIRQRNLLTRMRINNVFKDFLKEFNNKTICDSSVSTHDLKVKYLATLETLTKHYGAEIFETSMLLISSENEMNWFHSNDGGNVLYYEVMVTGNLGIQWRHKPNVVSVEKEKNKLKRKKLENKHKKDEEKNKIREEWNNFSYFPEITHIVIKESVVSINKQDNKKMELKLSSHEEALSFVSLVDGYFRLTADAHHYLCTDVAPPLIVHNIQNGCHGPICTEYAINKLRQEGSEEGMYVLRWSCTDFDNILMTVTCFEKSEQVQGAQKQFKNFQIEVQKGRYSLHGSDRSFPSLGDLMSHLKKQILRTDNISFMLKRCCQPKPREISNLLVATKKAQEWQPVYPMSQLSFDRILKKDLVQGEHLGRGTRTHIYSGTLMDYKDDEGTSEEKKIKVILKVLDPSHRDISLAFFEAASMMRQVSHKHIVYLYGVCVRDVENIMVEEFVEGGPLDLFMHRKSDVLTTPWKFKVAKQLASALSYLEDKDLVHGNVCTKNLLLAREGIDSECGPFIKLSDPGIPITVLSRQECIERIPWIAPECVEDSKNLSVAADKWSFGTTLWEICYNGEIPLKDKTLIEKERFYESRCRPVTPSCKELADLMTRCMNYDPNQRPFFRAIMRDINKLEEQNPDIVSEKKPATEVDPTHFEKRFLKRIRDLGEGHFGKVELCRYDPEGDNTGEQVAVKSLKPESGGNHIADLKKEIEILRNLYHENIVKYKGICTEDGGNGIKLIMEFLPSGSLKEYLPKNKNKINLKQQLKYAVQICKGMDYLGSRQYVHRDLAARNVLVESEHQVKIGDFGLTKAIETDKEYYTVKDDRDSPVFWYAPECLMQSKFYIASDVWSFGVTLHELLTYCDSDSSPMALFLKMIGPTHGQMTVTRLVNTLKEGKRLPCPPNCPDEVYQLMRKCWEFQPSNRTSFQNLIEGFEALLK

inhibition at 1 µM (JAK1) | inhibition at 1 µM (JAK2) | inhibition at 1 µM (JAK3) | inhibition at 1 µM (TYK2) | Compound
98% | 98% | 99% | 98% | Cn1nc(-c2cn(C(C3CC3)C3CC3)c(=O)c3c(N)n[nH]c23)cc1N1CC[C@@H](O)C1 [Example 169, 3-amino-5-(dicyclopropylmethyl)-7-(5-((3R)-3-hydroxypyrrolidin-1-yl)-1-methyl-1H-pyrazol-3-yl)-1,5-dihydro-4H-pyrazolo[4,3-c]pyridin-4-one]
99% | 99% | 99% | 98% | Cn1nc(-c2cn(C(C3CC3)C3CC3)c(=O)c3c(N)n[nH]c23)cc1N1CCC(F)(F)C1 [Example 170, 3-amino-5-(dicyclopropylmethyl)-7-(5-(3,3-difluoropyrrolidin-1-yl)-1-methyl-1H-pyrazol-3-yl)-1,5-dihydro-4H-pyrazolo[4,3-c]pyridin-4-one]
93% | 94% | 98% | 98% | CN(C[C@H]1CCCN1c1cc(-c2cn(C(C3CC3)C3CC3)c(=O)c3c(N)n[nH]c23)nn1C)C(=O)OC(C)(C)C [Example 171, tert-butyl(((2R)-1-(3-(3-amino-5-(dicyclopropylmethyl)-4-oxo-4,5-dihydro-1H-pyrazolo[4,3-c]pyridin-7-yl)-1-methyl-1H-pyrazol-5-yl)pyrrolidin-2-yl)methyl)methylcarbamate]
93% | 98% | 98% | 98% | CNC[C@H]1CCCN1c1cc(-c2cn(C(C3CC3)C3CC3)c(=O)c3c(N)n[nH]c23)nn1C [Example 172, 3-amino-5-(dicyclopropylmethyl)-7-(1-methyl-5-((2R)-2-((methylamino)methyl)pyrrolidin-1-yl)-1H-pyrazol-3-yl)-1,5-dihydro-4H-pyrazolo[4,3-c]pyridin-4-one]
98% | 96% | 99% | 98% | Cc1cc(-c2cn(C(C3CC3)C3CC3)c(=O)c3c(N)n[nH]c23)nn1C [Example 173, 3-amino-5-(dicyclopropylmethyl)-7-(1,5-dimethyl-1H-pyrazol-3-yl)-1,5-dihydro-4H-pyrazolo[4,3-c]pyridin-4-one]
99% | 98% | 99% | 98% | Cn1nc(-c2cn(C(C3CC3)C3CC3)c(=O)c3c(N)n[nH]c23)cc1C(C)(C)O [Example 174, 3-amino-5-(dicyclopropylmethyl)-7-(5-(2-hydroxypropan-2-yl)-1-methyl-1H-pyrazol-3-yl)-1,5-dihydro-4H-pyrazolo[4,3-c]pyridin-4-one]
96% | 97% | 98% | 98% | CC(=O)N(C)C[C@H]1CCCN1c1cc(-c2cn(C(C3CC3)C3CC3)c(=O)c3c(N)n[nH]c23)nn1C [Example 175, N-(((2R)-1-(3-(3-amino-5-(dicyclopropylmethyl)-4-oxo-4,5-dihydro-1H-pyrazolo[4,3-c]pyridin-7-yl)-1-methyl-1H-pyrazol-5-yl)pyrrolidin-2-yl)methyl)-N-methylacetamide]
97% | 98% | 99% | 98% | CN(C[C@H]1CCCN1c1cc(-c2cn(C(C3CC3)C3CC3)c(=O)c3c(N)n[nH]c23)nn1C)S(C)(=O)=O [Example 176, N-(((2R)-1-(3-(3-amino-5-(dicyclopropylmethyl)-4-oxo-4,5-dihydro-1H-pyrazolo[4,3-c]pyridin-7-yl)-1-methyl-1H-pyrazol-5-yl)pyrrolidin-2-yl)methyl)-N-methylmethanesulfonamide]
